PMC314469, “Protein Interaction Networks by Proteome Peptide Scanning” (PLoS Biology, 2004)

Tested on: Myo5 SH3 domain
Experiment: SPOT analysis of cellulose-bound peptides (WISE), Myo5 SH3 domain (Dataset S4)
Format: binding, Saccharomyces cerevisiae
Details: for The normalized value in BLU units: Myo5 SH3 domain
[1] = SPOT analysis of cellulose-bound 14-mer yeast proteome peptides, normalized value, mean where the peptide was synthesized more than once
[2] = SPOT analysis of cellulose-bound peptides probed with Myo5 SH3 domain, normalized value
[3] = SPOT analysis of membrane-bound peptides, normalized value (see methods)
[4] = SPOT analysis of membrane-synthesized peptides probed with Myo5 SH3 domain, normalized value

Sequence: SLVKFSCPMTPLLE
- The normalized value in BLU units [1]: 248.6 BLU

Sequence: PEVKHFCPSTPIML
- The normalized value in BLU units (SPOT analysis, Myo5 SH3) [2]: 93.7 BLU

Sequence: LTLTKWDPSKPISL
- The normalized value in BLU units [3]: 231.0 BLU

Sequence: LVGMRSFPLYPSGL
- The normalized value in BLU units [3]: 385.7 BLU

Sequence: HILEKYSPFDPCGR
- The normalized value in BLU units [3]: 166.2 BLU

Sequence: GLDALNIPHKPKQL
- The normalized value in BLU units (SPOT analysis, Myo5 SH3) [2]: 167.1 BLU

Sequence: GTRPKILPKIPTGA
- The normalized value in BLU units (SPOT analysis, Myo5 SH3) [4]: 772.9 BLU

Sequence: DFRGRAYPLSPHFN
- The normalized value in BLU units (SPOT analysis, Myo5 SH3) [4]: 785.0 BLU

Sequence: LNQSKGQPFQPSPT
- The normalized value in BLU units (SPOT analysis, Myo5 SH3) [4]: 254.7 BLU

Sequence: AVLIRADPLNPKVV
- The normalized value in BLU units (SPOT analysis, Myo5 SH3) [4]: 102.0 BLU

Sequence: LVGLKYEPLFPYFA
- The normalized value in BLU units [3]: 124.8 BLU

Sequence: TTRKKKDPNAPKRA
- The normalized value in BLU units (SPOT analysis, Myo5 SH3) [4]: 274.6 BLU

Sequence: KKVIRNYPGHPEGT
- The normalized value in BLU units (SPOT analysis, Myo5 SH3) [4]: 417.8 BLU

Sequence: SKIPKSIPIIPYVL
- The normalized value in BLU units (SPOT analysis, Myo5 SH3) [4]: 243.1 BLU

Sequence: RLFDLVKPKNPKFS
- The normalized value in BLU units [1]: 441.1 BLU

Sequence: ALRKFGYPFSPNDP
- The normalized value in BLU units [1]: 166.2 BLU

Sequence: KLEDLNEPLSPWIS
- The normalized value in BLU units (SPOT analysis, Myo5 SH3) [2]: 71.1 BLU

Sequence: ELAEFTDPSCPVSE
- The normalized value in BLU units [1]: 188.9 BLU

Sequence: ATVVKNCPGDPELF
- The normalized value in BLU units [3]: 76.2 BLU

Sequence: NPQSLARPPPPKRI
- The normalized value in BLU units [1]: 247.6 BLU

Sequence: NRANKYDPKGPIYN
- The normalized value in BLU units [3]: 205.0 BLU

Sequence: EKNARGIPQAPFIE
- The normalized value in BLU units [3]: 135.6 BLU

Sequence: VPDQLLTPLQPYTI
- The normalized value in BLU units (SPOT analysis, Myo5 SH3) [2]: 168.3 BLU

Sequence: LAKDLIVPRRPEWN
- The normalized value in BLU units (SPOT analysis, Myo5 SH3) [2]: 117125.4 BLU

Sequence: TLKKKKTPKKPIAA
- The normalized value in BLU units (SPOT analysis, Myo5 SH3) [4]: 535.4 BLU

Sequence: WLSKLVLPPPPVSI
- The normalized value in BLU units (SPOT analysis, Myo5 SH3) [2]: 4130.6 BLU

Sequence: SQKKKALPKQPKAS
- The normalized value in BLU units [3]: 492.9 BLU

Sequence: EEEAKSVPPIPADQ
- The normalized value in BLU units (SPOT analysis, Myo5 SH3) [4]: 29.4 BLU

Sequence: KFFKHLYPAIPILD
- The normalized value in BLU units [1]: 217.0 BLU

Sequence: SKYAKLDPSTPVSL
- The normalized value in BLU units [1]: 457.3 BLU

Sequence: AFYYKYYPVEPNCN
- The normalized value in BLU units (SPOT analysis, Myo5 SH3) [4]: 187.7 BLU

Sequence: ENENKKLPPAPTVF
- The normalized value in BLU units (SPOT analysis, Myo5 SH3) [4]: 67.7 BLU

Sequence: LGSEKSCPLAPAVA
- The normalized value in BLU units (SPOT analysis, Myo5 SH3) [4]: 121.9 BLU

Sequence: AMESRVAPEIPGLI
- The normalized value in BLU units [3]: 426.0 BLU

Sequence: GDHPKGPPPPPPPP
- The normalized value in BLU units (SPOT analysis, Myo5 SH3) [4]: 20184.2 BLU

Sequence: LIWHKNKPTKPDNK
- The normalized value in BLU units [1]: 300.3 BLU

Sequence: NSFRKILPQEPEIW
- The normalized value in BLU units [3]: 235.4 BLU

Sequence: FLLKKMFPAPPLPT
- The normalized value in BLU units (SPOT analysis, Myo5 SH3) [4]: 23725.0 BLU

Sequence: QFQKLVPPTLPENV
- The normalized value in BLU units [1]: 153.9 BLU

Sequence: PEVHHHCPGVPCLV
- The normalized value in BLU units (SPOT analysis, Myo5 SH3) [2]: 331.3 BLU

Sequence: MASFLPVPEKPNLI
- The normalized value in BLU units [1]: 161.0 BLU

Sequence: LYREREEPPLPKRI
- The normalized value in BLU units [1]: 112.3 BLU

Sequence: KIVRRDYPSTPVIV
- The normalized value in BLU units [1]: 366.1 BLU

Sequence: LFDEKVKPQIPQLR
- The normalized value in BLU units (SPOT analysis, Myo5 SH3) [4]: 89.2 BLU
